Data reported in ChEMBL document CHEMBL3621056, “Discovery of mitochondria-targeting berberine derivatives as the inhibitors of proliferation, invasion and migration against rat C6 and human U87 glioma cells” (Medchemcomm, 2015).
One block for each molecule: values may come before it. Active and inactive are the calls of the source. The rule behind the calls is not given here.

Assays:
[1] = n-octanol/water partition coefficient, log P of the compound by HPLC analysis; format: physicochemical
[2] = tested on: C6; assay: Cytotoxicity against rat C6 cells assessed as inhibition of cell proliferation after 24 hrs by MTT assay; format: functional, cell-based; settings: for IC50: C6, 24 h
[3] = (§1) Cytotoxicity against human U87 cells assessed as inhibition of cell proliferation after 24 hrs by MTT assay; format: functional, cell-based, U-87MG ATCC; settings: U-87 MG
[4] = tested on: U-87MG ATCC; assay: as §1; format: functional, cell-based
[5] = tested on: C6; assay: Cytotoxicity against rat C6 cells assessed as cell survival rate at 10 uM after 24 hrs by MTT assay relative to control; format: functional; settings: C6, 24 h, read-out: Survival
[6] = Cytotoxicity against human U87 cells assessed as cell survival rate at 10 uM after 24 hrs by MTT assay relative to control; format: functional, U-87MG ATCC; settings: U-87 MG, read-out: Survival
[7] = tested on: C6; assay: Antimigratory activity in rat C6 cells at 0.5 uM after 24 hrs by Transwell assay relative to control; format: functional
[8] = tested on: C6; assay: Antiinvasive activity in rat C6 cells at 0.5 uM after 24 hrs by Transwell assay relative to control; format: functional
[9] = (§2) Antimigratory activity in human U87 cells at 0.5 uM after 24 hrs by Transwell assay relative to control; format: functional, U-87MG ATCC
[10] = (§3) Antiinvasive activity in human U87 cells at 0.5 uM after 24 hrs by Transwell assay relative to control; format: functional, U-87MG ATCC
[11] = Drug uptake in mitochondria of rat C6 cells at 1 uM after 24 hrs by Mitotracker Green FM staining-based laser confocal microscopic analysis; format: ADME; settings: c6, 24 h
[12] = Drug uptake in mitochondria of human U87 cells at 1 uM after 24 hrs by Mitotracker Green FM staining-based laser confocal microscopic analysis; format: ADME; settings: u-87mg atcc
[13] = (§4) Antimigratory activity in human U87 cells at 2.5 uM after 24 hrs by Transwell assay relative to control; format: functional, U-87MG ATCC
[14] = (§5) Antiinvasive activity in human U87 cells at 2.5 uM after 24 hrs by Transwell assay relative to control; format: functional, U-87MG ATCC
[15] = tested on: C6; assay: Induction of intracellular reactive oxygen species formation in rat C6 cells at 2 uM after 24 hrs by DHE dye-based inverted fluorescent microscopic analysis; format: functional, cell-based
[16] = tested on: U-87MG ATCC; assay: Induction of intracellular reactive oxygen species formation in human U87 cells at 2 uM after 24 hrs by DHE dye-based inverted fluorescent microscopic analysis; format: functional, cell-based
[17] = Cytotoxicity against human U87 cells assessed as growth inhibition after 72 hrs by SRB assay; format: functional, cell-based, U-87MG ATCC; settings: U-87 MG
[18] = Antiinvasive activity in human U87 cells at 2 uM after 24 hrs by Transwell assay relative to control; format: functional, U-87MG ATCC
[19] = Antimigratory activity in human U87 cells at 2 uM after 24 hrs by Transwell assay relative to control; format: functional, U-87MG ATCC
[20] = Cytotoxicity against human U87 cells assessed as cell survival rate up to 20 uM after 24 hrs by MTT assay relative to control; format: functional, U-87MG ATCC
[21] = tested on: C6; assay: Antimigratory activity in rat C6 cells at 5 uM after 24 hrs by Transwell assay; format: functional, cell-based
[22] = tested on: C6; assay: Antiinvasive activity in rat C6 cells at 5 uM after 24 hrs by Transwell assay; format: functional, cell-based
[23] = tested on: U-87MG ATCC; assay: Antimigratory activity in human U87 cells at 5 uM after 24 hrs by Transwell assay; format: functional, cell-based
[24] = tested on: U-87MG ATCC; assay: Antiinvasive activity in human U87 cells at 5 uM after 24 hrs by Transwell assay; format: functional, cell-based
[25] = tested on: U-87MG ATCC; assay: as §4; format: functional
[26] = tested on: C6; assay: Cytotoxicity against rat C6 cells assessed as cell survival rate at 20 uM after 24 hrs by MTT assay relative to control; format: functional; settings: C6, 24 h, read-out: Survival
[27] = Cytotoxicity against human U87 cells assessed as cell survival rate at 20 uM after 24 hrs by MTT assay relative to control; format: functional, U-87MG ATCC; settings: U-87 MG, read-out: Survival
[28] = tested on: U-87MG ATCC; assay: as §5; format: functional
[29] = tested on: C6; assay: Antimigratory activity in rat C6 cells at 1 uM after 24 hrs by Transwell assay; format: functional, cell-based
[30] = tested on: C6; assay: Antiinvasive activity in rat C6 cells at 1 uM after 24 hrs by Transwell assay; format: functional, cell-based
[31] = tested on: U-87MG ATCC; assay: as §2; format: functional
[32] = tested on: U-87MG ATCC; assay: as §3; format: functional

SMILES: CCCCCCCCCCCCCCCCc1c2[n+](cc3c(OC)c(OC)ccc13)CCc1cc3c(cc1-2)OCO3.[I-]
logP [1]: 3.24
inhibition [2]: Dose-dependent effect
IC50 [2]: 1.67 µM
IC50 [3]: 3.25 µM
inhibition [4]: Dose-dependent effect
viability at 10 µM [5]: < 20%
viability at 10 µM [6]: < 20%
Activity [7]: >30%
Activity [8]: >30%
Activity [9]: >30%
Activity [10]: >30%
Drug uptake [11]: Active
Drug uptake [12]: Active

logP [1]: 3.01
SMILES: CCCCCCCCCCCCCCCCCCOc1c(OC)ccc2cc3[n+](cc12)CCc1cc2c(cc1-3)OCO2.[Br-]
inhibition [2]: Dose-dependent effect
IC50 [2]: 4.45 µM
IC50 [3]: 22.5 µM
inhibition [4]: Dose-dependent effect
Activity [7]: >30%
Activity [8]: >30%
Activity [13]: >30%
Activity [14]: >30%
Activity [15]: inactive
Activity [16]: inactive

SMILES: CCc1c2c(nc3ccc(OC(=O)N4CCC(N5CCCCC5)CC4)cc13)-c1cc3c(c(=O)n1C2)COC(=O)[C@]3(O)CC [IRINOTECAN]
IC50 [17]: > 250 µM

SMILES: CCCCCCCCCCCCCCCCCCc1c2[n+](cc3c(OC)c(OC)ccc13)CCc1cc3c(cc1-2)OCO3.[I-]
logP [1]: 3.22
inhibition [2]: Dose-dependent effect
IC50 [2]: 2.37 µM
IC50 [3]: 5.75 µM
inhibition [4]: Dose-dependent effect
viability at 10 µM [5]: < 20%
viability at 10 µM [6]: < 20%
Activity [7]: >30%
Activity [8]: >30%
Activity [13]: >30%
Activity [14]: >30%
Activity [15]: inactive
Activity [16]: inactive

logP [1]: 3.43
Drug uptake [11]: Active
Drug uptake [12]: Active
SMILES: CCCCCCCCCCCCOc1c(OC)ccc2cc3[n+](cc12)CCc1cc2c(cc1-3)OCO2.[Br-]
inhibition [2]: Dose-dependent effect
IC50 [2]: 1.24 µM
IC50 [3]: 4.55 µM
inhibition [4]: Dose-dependent effect
Activity [7]: >60%
Activity [8]: >60%
Activity [18]: >60%
Activity [19]: >60%
Activity [15]: Active
Activity [16]: Active

SMILES: CCCCCCCCCCCCCCCCOc1c(OC)ccc2cc3[n+](cc12)CCc1cc2c(cc1-3)OCO2.[Br-]
logP [1]: 3.41
inhibition [2]: Dose-dependent effect
IC50 [2]: 6.12 µM
IC50 [3]: 15.2 µM
inhibition [4]: Dose-dependent effect
Survival [20]: 38.95%
Activity [7]: >60%
Activity [8]: >60%
Activity [13]: >60%
Activity [14]: >60%
Drug uptake [11]: Active
Drug uptake [12]: Active

SMILES: Cn1nnc2c(C(N)=O)ncn2c1=O [TEMOZOLOMIDE]
IC50 [17]: 19.4 µM

logP [1]: -0.86
SMILES: COc1ccc2cc3[n+](cc2c1OCc1ccccc1)CCc1cc2c(cc1-3)OCO2.[Br-]
inhibition [2]: Dose-dependent effect
IC50 [2]: 11.5 µM
IC50 [3]: > 20 µM
inhibition [4]: Dose-dependent effect
Activity [7]: >30%
Activity [8]: >30%
Activity [13]: >30%
Activity [14]: >30%
Activity [15]: Active
Activity [16]: Active

logP [1]: -1.68
Drug uptake [11]: Active
Drug uptake [12]: Active
SMILES: COc1ccc2cc3[n+](cc2c1OC)CCc1cc2c(cc1-3)OCO2.[Cl-] [BERBERINE CHLORIDE]
IC50 [2]: > 20 µM
IC50 [3]: > 20 µM
Activity [21]: Active
Activity [22]: Active
Activity [23]: Active
Activity [24]: Active
Activity [15]: inactive
Activity [16]: inactive

SMILES: CCCCCCCCCCCCc1c2[n+](cc3c(OC)c(OC)ccc13)CCc1cc3c(cc1-2)OCO3.[I-]
logP [1]: 3.66
inhibition [2]: Dose-dependent effect
IC50 [2]: 1.65 µM
IC50 [3]: 3.09 µM
inhibition [4]: Dose-dependent effect
viability at 10 µM [5]: < 20%
viability at 10 µM [6]: < 20%
Activity [7]: >60%
Activity [8]: >60%
Activity [9]: >60%
Activity [10]: >60%
Drug uptake [11]: Active
Drug uptake [12]: Active
Activity [15]: Active
Activity [16]: Active

logP [1]: 2.26
SMILES: CCCCCCCCCCOc1c(OC)ccc2cc3[n+](cc12)CCc1cc2c(cc1-3)OCO2
inhibition [2]: Dose-dependent effect
IC50 [2]: 2.95 µM
IC50 [3]: 5.73 µM
inhibition [4]: Dose-dependent effect
Activity [7]: Active
Activity [8]: Active
Activity [25]: Active
Activity [15]: Active
Activity [16]: Active

SMILES: COc1ccc2c(Cc3ccccc3)c3[n+](cc2c1OC)CCc1cc2c(cc1-3)OCO2
logP [1]: -0.73
inhibition [2]: Dose-dependent effect
IC50 [2]: 14.4 µM
IC50 [3]: > 20 µM
inhibition [4]: Dose-dependent effect
viability at 20 µM [26]: 37.2%
viability at 20 µM [27]: 67.2%
Activity [25]: inactive
Activity [28]: inactive
Activity [29]: inactive
Activity [30]: inactive
Activity [15]: inactive
Activity [16]: inactive

SMILES: CCCCCCCCCCc1c2[n+](cc3c(OC)c(OC)ccc13)CCc1cc3c(cc1-2)OCO3
logP [1]: 2.37
inhibition [2]: Dose-dependent effect
IC50 [2]: 1.12 µM
IC50 [3]: 3.65 µM
inhibition [4]: Dose-dependent effect
viability at 10 µM [5]: < 20%
viability at 10 µM [6]: < 20%
Activity [7]: Active
Activity [8]: Active
Activity [31]: Active
Activity [32]: Active
Activity [15]: Active
Activity [16]: Active
